Molecular target: Trypanosoma brucei (Tb) N-myristoyl transferase (Trypanosoma brucei brucei, UniProt Q388H8)
Assay: Fluorescence-based NMT assay (a), adapted version, TbNMT
Assay type: biochemical

Chain of Trypanosoma brucei (Tb) N-myristoyl transferase (Q388H8 entry or part of it): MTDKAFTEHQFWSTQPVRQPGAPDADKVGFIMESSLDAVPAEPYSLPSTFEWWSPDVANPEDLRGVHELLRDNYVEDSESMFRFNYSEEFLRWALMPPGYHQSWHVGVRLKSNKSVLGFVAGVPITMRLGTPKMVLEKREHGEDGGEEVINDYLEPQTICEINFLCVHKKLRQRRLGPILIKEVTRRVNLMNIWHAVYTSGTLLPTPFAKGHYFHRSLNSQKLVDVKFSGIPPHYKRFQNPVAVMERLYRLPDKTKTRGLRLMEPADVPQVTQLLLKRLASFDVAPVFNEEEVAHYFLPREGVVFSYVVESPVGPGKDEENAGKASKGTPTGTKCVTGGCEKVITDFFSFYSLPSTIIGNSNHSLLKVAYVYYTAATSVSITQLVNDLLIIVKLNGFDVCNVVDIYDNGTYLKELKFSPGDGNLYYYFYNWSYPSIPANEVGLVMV

Cc1nn(C)c(C)c1CCOc1cc(F)ccc1-c1ccc2[nH]nc(CN(C)C)c2c1 [Example 7]
IC50: 1 to 100 nM

Source: patent publication US11466011B2, “Compounds and their use as inhibitors of N-myristoyl transferase” (Imperial College Innovations Limited, priority 2015, dated 2022)
